Measurements taken from article PMC11845477, “Exploring the principles behind antibiotics with limited resistance” (Nature Communications, 2025).

Tests used:
[1] = test system: A. baumannii ATCC 17978 (SEN) and A. baumannii ATCC BAA-1605 (MDR); test: microbe, parasite or virus in culture; assay type: cell-based, Acinetobacter baumannii; conditions: across three biological replicates
In short: (§1)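 Cells at 5 × 10^5 per mL in cation-adjusted MHB 2 across 11 to 16-step dilutions, 2 replicates. Relative MIC expressed as MICevolved/MICancestor.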

[2] = test system: P. aeruginosa ATCC BAA-3107 (SEN) and P. aeruginosa LESB58 (MDR); test: microbe, parasite or virus in culture; assay type: cell-based, Pseudomonas aeruginosa; conditions: across three biological replicates
In short: as §1

[3] = test system: K. pneumoniae ATCC 10031 (SEN) and K. pneumoniae ATCC 700603 (MDR); test: Adaptive laboratory evolution (ALE), relative MIC of evolved lines; assay type: cell-based, Klebsiella pneumoniae; conditions: for Relative MIC: ALE; for MIC of evolved line: KP-SEN (K. pneumoniae ATCC 10031)
In short: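 Ten parallel populations per antibiotic–ancestor pair were evolved in MHB at 37 °C, starting near 50% growth-inhibiting drug. Every 72 h they were passaged into 0.5–2.5× increasing concentrations, keeping the highest-drug well with OD600 > 0.2.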

[4] = Acinetobacter baumannii ATCC 17978 (AB-SEN)
[5] = Acinetobacter baumannii ATCC BAA-1605 (AB-MDR)
[6] = Pseudomonas aeruginosa ATCC BAA-3107 (PA-SEN)
[7] = Pseudomonas aeruginosa LESB 58 (PA-MDR)

## POL7306
[1]; [4]
  MIC: 1 µg/mL
[1]; [5]
  MIC: 1 µg/mL
[2]; [6]
  MIC: 2 µg/mL
[2]; [7]
  MIC: 8 µg/mL
[3]; Klebsiella pneumoniae ATCC 10031 (KP-SEN), evolved line 1
  Relative MIC: 1
[3]; Klebsiella pneumoniae ATCC 10031 (KP-SEN), evolved line 4
  Relative MIC: 32
[3]; Klebsiella pneumoniae ATCC 10031 (KP-SEN), evolved line 7
  Relative MIC: 1
[3]; Klebsiella pneumoniae ATCC 10031 (KP-SEN), evolved line 8
  Relative MIC: 32
[3]; Klebsiella pneumoniae ATCC 10031 (KP-SEN), evolved line 10
  Relative MIC: 64
[3]; Klebsiella pneumoniae ATCC 700603 (KP-MDR), evolved line 1
  Relative MIC: 16
[3]; Klebsiella pneumoniae ATCC 700603 (KP-MDR), evolved line 2
  Relative MIC: 256
[3]; Klebsiella pneumoniae ATCC 700603 (KP-MDR), evolved line 3
  Relative MIC: 256
[3]; Klebsiella pneumoniae ATCC 700603 (KP-MDR), evolved line 4
  Relative MIC: 256
[3]; Klebsiella pneumoniae ATCC 700603 (KP-MDR), evolved line 5
  Relative MIC: 256
[3]; Klebsiella pneumoniae ATCC 700603 (KP-MDR), evolved line 6
  Relative MIC: 256
[3]; Klebsiella pneumoniae ATCC 700603 (KP-MDR), evolved line 8
  Relative MIC: 256
[3]; Klebsiella pneumoniae ATCC 700603 (KP-MDR), evolved line 10
  Relative MIC: 16

## Tridecaptin M152-P3
[1]; [4]
  MIC: 8 µg/mL
[1]; [5]
  MIC: 8 µg/mL
[2]; [6]
  MIC: 32 µg/mL
[2]; [7]
  MIC: >32 µg/mL
[3]; evolved line 2 of the given antibiotic
  MIC of evolved line: 32 µg/mL
[3]; evolved line 4 of the given antibiotic
  MIC of evolved line: 8 µg/mL
[3]; evolved line 5 of the given antibiotic
  MIC of evolved line: 64 µg/mL
[3]; evolved line 6 of the given antibiotic
  MIC of evolved line: 64 µg/mL
[3]; evolved line 7 of the given antibiotic
  MIC of evolved line: 64 µg/mL
[3]; evolved line 8 of the given antibiotic
  MIC of evolved line: 4 µg/mL
